Experimental data from US20090312437A1, “Anthraquinones and Analogs from Rhuem palmatum for Treatment of Estrogen Receptor Beta-Mediated Conditions” (Bionovo, Inc., A Delaware Corporation, priority 2008, published 2009).

Legend:
ERβ [1] = target: T1, ERβ (Homo sapiens, UniProt Q92731); assay: Repression of TNF-α activation of TNF-RE tkLuc in U2OS cells with ERβ; assay type: cell-based; set-up: expressed in transfected cells; host or cells: U2OS (human osteosarcoma)
ERβ [2] = target: T1, ERβ; assay: ERE-tk-Luc luciferase transient transfection assay in U2OS cells with ERβ
Protocol: (§2) The isolated and two purchased (4, 5) anthraquinones, were tested for their ERα and ERβ activities using transient transfection assays in the human U2OS bone cell line with an estrogen response element linked to the luciferase reporter gene (ERE-tkLuc).
(§3) U2OS osteosarcoma cells were cotransfected with a classic ERE upstream of a minimal thymidine kinase (tk) promoter (ERE-tk-Luc) and expression vectors for human ERα or ERβ.

[3] = system: MCF-7 breast cancer cells; assay: MCF-7 kidney capsule graft tumor formation in nude mice; assay type: in vivo, CD-1/Nude female mice; conditions: MCF-7 grafts, 28 days, subcutaneous Alzet pump, 2 mg/200 μL for 6, 360 μg/200 μL for estradiol
Protocol: (§1) The effects of 6 were tested in vivo on breast cancer tumor formation and uterine proliferation. CD-1/Nude female mice, 40-50 days old at time of grafting were selected. Each mouse received 2 grafts per kidney, 4 grafts total with MCF-7 breast cancer cells in 25 μL collagen per graft. Compound 6 was delivered subcutaneously with a Alzet Osmotic pump filled with 200 μL of 6 for 28 days. […] At the end of 28 days of treatment, all grafts and uteri were isolated, pictures taken, weighed, and fixed in formalin.

ERα = target: T2, ERα (Homo sapiens, UniProt P03372); assay: ERE-tk-Luc luciferase transient transfection assay in U2OS cells with ERα; assay type: cell-based; conditions: ERα expression vector
T2 construct: expressed in transfected cells; host or cells: U2OS (human osteosarcoma)
T2 sequence (P03372 1-595): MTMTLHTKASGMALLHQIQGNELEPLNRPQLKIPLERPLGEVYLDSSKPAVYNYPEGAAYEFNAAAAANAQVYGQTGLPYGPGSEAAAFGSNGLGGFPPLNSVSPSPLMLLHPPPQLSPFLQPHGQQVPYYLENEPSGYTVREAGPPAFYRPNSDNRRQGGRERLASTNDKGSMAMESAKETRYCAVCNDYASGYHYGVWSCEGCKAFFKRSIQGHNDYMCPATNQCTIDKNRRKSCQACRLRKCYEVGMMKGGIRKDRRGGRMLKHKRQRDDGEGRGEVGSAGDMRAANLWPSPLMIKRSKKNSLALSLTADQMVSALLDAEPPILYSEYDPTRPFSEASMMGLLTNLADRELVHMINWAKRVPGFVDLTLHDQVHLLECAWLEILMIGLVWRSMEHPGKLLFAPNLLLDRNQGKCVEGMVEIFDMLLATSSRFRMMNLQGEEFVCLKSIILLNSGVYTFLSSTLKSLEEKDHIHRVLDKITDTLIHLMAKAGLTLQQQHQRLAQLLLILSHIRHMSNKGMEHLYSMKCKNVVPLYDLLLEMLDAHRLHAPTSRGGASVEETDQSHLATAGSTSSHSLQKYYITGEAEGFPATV
Protocol: as §2, §3

[4] = women at high risk for breast cancer; cited from earlier work
[5] = five years of therapy; cited from earlier work
uterine proliferation = assay: Uterine proliferation in nude mice, 28 days subcutaneous osmotic pump; assay type: in vivo, CD-1/Nude female mice; conditions: subcutaneous Alzet pump, 2 mg/200 μL for 6, 360 μg/200 μL for estradiol
Protocol: as §1

ERβ [6] = target: T1, ERβ; assay: ER binding curves (ERβ compared with ERα)

T1 sequence (Q92731 whole entry): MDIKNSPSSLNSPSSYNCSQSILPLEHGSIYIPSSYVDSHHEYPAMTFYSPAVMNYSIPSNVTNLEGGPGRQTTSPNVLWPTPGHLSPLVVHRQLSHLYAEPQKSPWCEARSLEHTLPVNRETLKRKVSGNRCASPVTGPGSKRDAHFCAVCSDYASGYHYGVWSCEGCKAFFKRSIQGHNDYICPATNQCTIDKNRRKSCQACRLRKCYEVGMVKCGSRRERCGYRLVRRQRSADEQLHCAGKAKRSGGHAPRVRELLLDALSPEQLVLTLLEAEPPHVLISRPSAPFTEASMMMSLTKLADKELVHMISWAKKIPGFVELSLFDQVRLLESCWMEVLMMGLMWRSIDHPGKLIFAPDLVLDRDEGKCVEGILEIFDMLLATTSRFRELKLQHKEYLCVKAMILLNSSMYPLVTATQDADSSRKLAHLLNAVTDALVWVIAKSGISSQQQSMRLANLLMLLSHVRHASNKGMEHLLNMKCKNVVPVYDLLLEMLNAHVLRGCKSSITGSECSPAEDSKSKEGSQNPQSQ

Question: Which “repression of TNF-α activation of TNF-RE in the presence of ERβ” value (ERβ [1]) does the source give for aloe-emodin [compound 2] here?
Answer: produced repression

Question: And the “ERβ-activation of ERE-tk-luc in the presence of compound and raloxifene” value (“ERβ-activation … of compound and raloxifene” for short) (ERβ [2])?
Answer: attenuated

Question: What about the “ERβ-activation of ERE-tk-luc in the presence of compound and tamoxifen” value (“ERβ-activation … of compound and tamoxifen” below) (ERβ [2]) of the same compound?
Answer: attenuated

Question: What does the source list for `O=C1c2c(O)c(O)c(O)c(O)c2C(=O)c2c(O)c(O)c(O)c(O)c21` [compound 6, octahydroxyanthraquinone]?
Answer: tumor formation / proliferation in kidney capsule grafts as compared to control [3]: does not increase breast cancer tumor formation; tumor formation / proliferation in kidney capsule grafts as compared to control ([3]; listed as octahydroxyanthraquinone): suppresses tumor proliferation; activation of ERE-tk-Luc in the presence of ERα (ERα): no effect on ERα

Question: With `CC/C(=C(\c1ccccc1)c1ccc(OCCN(C)C)cc1)c1ccccc1` [tamoxifen] as the compound, how does the “reduction of the risk of primary invasive breast cancer” value [4] read?
Answer: 49%

Question: What about the “reduction of mortality from breast cancer” value [5] of the same compound?
Answer: 22%

Question: And the “reduction of the risk of recurrences” value [5]?
Answer: 42%

Question: What does the source list for `C[C@]12CC[C@@H]3c4ccc(O)cc4CC[C@H]3[C@@H]1CC[C@@H]2O` [estradiol, reference compound]?
Answer: uterine proliferation as compared to control (uterine proliferation): stimulates uterine proliferation; repression of TNF-α activity on ERβ (ERβ [1]; data not shown): 100%

Question: For emodin [compound 1], which “ERβ-binding curve as compared to the ERα-binding curve” value (ERβ [6]) is on record?
Answer: very similar

Question: What about the “repression of TNF-α activation of TNF-RE in the presence of ERβ” value (ERβ [1]) of the same compound?
Answer: produced repression

Question: What about the “ERβ-activation … of compound and raloxifene” value (ERβ [2]; listed as Emodin) of the same compound?
Answer: attenuated

Question: And the “ERβ-activation … of compound and raloxifene” value (ERβ [2]; listed as emodin)?
Answer: repressed

Question: And the “ERβ-activation … of compound and tamoxifen” value (ERβ [2]; listed as Emodin)?
Answer: attenuated

Question: What about the “ERβ-activation … of compound and tamoxifen” value (ERβ [2]; listed as emodin) of the same compound?
Answer: repressed
